From patent US10577363B2, “Substituted piperidine compounds” (EPIZYME, INC., priority 2014, dated 2020)

What was measured:
[1] = target: T1, SMYD3 (Homo sapiens (Human), UniProt Q9H7B4); assay: SMYD3 cell assay (Trimethyl-MEKK2 In-Cell Western in 293T/17 cells); format: cell-based; settings: average of n = 1 to n = 50; read-out: SMYD3 Cell IC50
In short: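 In-Cell Western ratio of trimethyl-Lys260 MEKK2 to anti-flag signal; percent inhibition from DMSO and maximum-inhibition controls, IC50 by non-linear regression, triplicates.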

[2] = target: T1, SMYD3; assay: SMYD3 biochemical assay (SPA, 3H-SAM methylation of MEKK2 protein substrate); settings: average of n = 1 to n = 50; read-out: SMYD3 Biochem IC50
In short: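 Full-length native human SMYD3 (E. coli-expressed, tags removed) preincubated with compounds 30 min at room temperature, then reaction started with 3H-SAM and GST-tagged MEKK2 protein in 25 mM Tris-Cl pH 8.0, 1 mM TCEP, 0.005% BSG, 0.005% Tween 20. Quenched with unlabelled SAM (100 uM final); 3H-MEKK2 counted by SPA.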

T1 sequence (Q9H7B4 whole entry): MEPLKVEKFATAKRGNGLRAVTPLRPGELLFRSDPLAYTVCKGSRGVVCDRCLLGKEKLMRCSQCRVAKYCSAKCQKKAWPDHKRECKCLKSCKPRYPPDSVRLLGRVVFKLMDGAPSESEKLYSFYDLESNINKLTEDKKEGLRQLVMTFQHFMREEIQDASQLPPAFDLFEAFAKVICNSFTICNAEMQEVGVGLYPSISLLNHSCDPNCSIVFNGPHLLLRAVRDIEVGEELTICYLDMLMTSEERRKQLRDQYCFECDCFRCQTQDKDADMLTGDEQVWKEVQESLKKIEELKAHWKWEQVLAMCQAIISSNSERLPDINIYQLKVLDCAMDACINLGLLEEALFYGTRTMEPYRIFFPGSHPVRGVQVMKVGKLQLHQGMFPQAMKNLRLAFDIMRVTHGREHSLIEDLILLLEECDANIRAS

Structure (SMILES)	IC50 [1] [µM]	IC50 [2] [µM]
C[C@H]1CN(S(=O)(=O)CC2CCN(CCN3CCCCC3)CC2)CC[C@H]1NC(=O)c1cc(C2CC2)on1 [compound 693, 5-cyclopropyl-N-((3S,4R)-3-methyl-1-(((1-(2-(piperidin-1-yl)ethyl)piperidin-4-yl)methyl)sulfonyl)piperidin-4-yl)isoxazole-3-carboxamide]	4.04	0.156
C[C@H]1CN(S(=O)(=O)CCN)[C@@H](C)C[C@H]1NC(=O)c1cc(C2CC2)on1 [compound 694, N-((2S,4R,5S)-1-((2-aminoethyl)sulfonyl)-2,5-dimethylpiperidin-4-yl)-5-cyclopropylisoxazole-3-carboxamide]	0.952	0.157
C[C@H]1C[C@@H](NC(=O)c2cc(C3CC3)on2)CCN1S(=O)(=O)C(CCN)c1ccccc1 (stereo partly drawn) [compound 695, N-((2S,4S)-1-((3-amino-1-phenylpropyl)sulfonyl)-2-methylpiperidin-4-yl)-5-cyclopropylisoxazole-3-carboxamide]	1.83	0.169
C[C@H]1CN(S(=O)(=O)NC2CCN(Cc3ccccc3)CC2)CC[C@H]1NC(=O)c1cc(C2CC2)on1 [compound 696, N-((3S,4R)-1-(N-(1-benzylpiperidin-4-yl)sulfamoyl)-3-methylpiperidin-4-yl)-5-cyclopropylisoxazole-3-carboxamide]	1.55	0.17
C[C@H]1C[C@@H](NC(=O)c2cc(C3CC3)on2)CCN1S(=O)(=O)CCCNc1ccccc1 [compound 697, 5-cyclopropyl-N-((2S,4S)-2-methyl-1-((3-(phenylamino)propyl)sulfonyl)piperidin-4-yl)isoxazole-3-carboxamide]	1.56	0.178
C[C@H]1CN(S(=O)(=O)CC2CCN(CCC(F)(F)F)CC2)CC[C@H]1NC(=O)c1cc(C2CC2)on1 [compound 698, 5-cyclopropyl-N-((3S,4R)-3-methyl-1-(((1-(3,3,3-trifluoropropyl)piperidin-4-yl)methyl)sulfonyl)piperidin-4-yl)isoxazole-3-carboxamide]	0.746	0.179
CC1CN(S(=O)(=O)N2CC[C@H](NC(=O)c3cc(C4CC4)on3)C[C@@H]2C)CCN1C (stereo partly drawn) [compound 699, 5-cyclopropyl-N-((2S,4S)-1-((3,4-dimethylpiperazin-1-yl)sulfonyl)-2-methylpiperidin-4-yl)isoxazole-3-carboxamide]	0.658	0.193
O=C(N[C@H]1CCN(S(=O)(=O)CC2CCCNC2)[C@@H](Cc2ccccc2)C1)c1cc(C2CC2)on1 (stereo partly drawn) [compound 700, N-((2S,4S)-2-benzyl-1-((piperidin-3-ylmethyl)sulfonyl)piperidin-4-yl)-5-cyclopropylisoxazole-3-carboxamide]	2.11	0.194
CC1CN(S(=O)(=O)N2CC[C@H](NC(=O)c3cc(C4CC4)on3)C[C@@H]2C)CC(C)N1 (stereo partly drawn) [compound 701, 5-cyclopropyl-N-((2S,4S)-1-((3,5-dimethylpiperazin-1-yl)sulfonyl)-2-methylpiperidin-4-yl)isoxazole-3-carboxamide]	1.84	0.21
CC1CN(S(=O)(=O)N2[C@@H]3CC[C@H]2C[C@@H](NC(=O)c2cc(C4CC4)on2)C3)CC(C)N1C (stereo partly drawn) [compound 702, 5-cyclopropyl-N-((1R,3r,5S)-8-((3,4,5-trimethylpiperazin-1-yl)sulfonyl)-8-azabicyclo[3.2.1]octan-3-yl)isoxazole-3-carboxamide]	1.24	0.215
CN(CCCS(=O)(=O)N1[C@@H]2CC[C@H]1C[C@@H](NC(=O)c1cc(C3CC3)on1)C2)CCN1CCOCC1 [compound 703, 5-cyclopropyl-N-((1R,3r,5S)-8-((3-(methyl(2-morpholinoethyl)amino)propyl)sulfonyl)-8-azabicyclo[3.2.1]octan-3-yl)isoxazole-3-carboxamide]	0.804	0.217
O=C(N[C@H]1C[C@H]2CC[C@@H](C1)N2S(=O)(=O)CCNCCc1ccccc1)c1cc(C2CC2)on1 [compound 705, 5-cyclopropyl-N-((1R,3r,5S)-8-((2-(phenethylamino)ethyl)sulfonyl)-8-azabicyclo[3.2.1]octan-3-yl)isoxazole-3-carboxamide]	1.51	0.225
C[C@H]1C[C@@H](NC(=O)c2cc(C3CC3)on2)CCN1S(=O)(=O)c1ccncc1 [compound 706, 5-cyclopropyl-N-((2S,4S)-2-methyl-1-(pyridin-4-ylsulfonyl)piperidin-4-yl)isoxazole-3-carboxamide]	1.21	0.238
O=C(N[C@H]1CCN(S(=O)(=O)CC2CCN(CCCO)CC2)[C@@H](Cc2ccccc2)C1)c1cc(C2CC2)on1 [compound 707, N-((2S,4S)-2-benzyl-1-(((1-(3-hydroxypropyl)piperidin-4-yl)methyl)sulfonyl)piperidin-4-yl)-5-cyclopropylisoxazole-3-carboxamide]	2.54	0.247
C[C@H]1C[C@@H](NC(=O)c2cc(C3CC3)on2)CCN1S(=O)(=O)c1cccc(N)n1 [compound 708, N-((2S,4S)-1-((6-aminopyridin-2-yl)sulfonyl)-2-methylpiperidin-4-yl)-5-cyclopropylisoxazole-3-carboxamide]	1.66	0.252
CN1CCC(N(C)S(=O)(=O)N2[C@@H]3CCC[C@@H]2CC(NC(=O)c2cc(C4CC4)on2)C3)CC1 (stereo partly drawn) [compound 709, 5-cyclopropyl-N-((1R,5R)-9-(N-methyl-N-(1-methylpiperidin-4-yl)sulfamoyl)-9-azabicyclo[3.3.1]nonan-3-yl)isoxazole-3-carboxamide]	1.92	0.258
C[C@H]1CN(S(=O)(=O)N2CCN(C)CC2)CC[C@H]1NC(=O)c1cc(C2CC2)on1 [compound 710, 5-cyclopropyl-N-((3S,4R)-3-methyl-1-((4-methylpiperazin-1-yl)sulfonyl)piperidin-4-yl)isoxazole-3-carboxamide]	0.831	0.261
CC[C@@H]1CN(S(=O)(=O)N2CC[C@H](NC(=O)c3cc(C4CC4)on3)C[C@@H]2C)CCN1C [compound 711, 5-cyclopropyl-N-((2S,4S)-1-(((R)-3-ethyl-4-methylpiperazin-1-yl)sulfonyl)-2-methylpiperidin-4-yl)isoxazole-3-carboxamide]	1.15	0.273
C[C@@H]1CN(S(=O)(=O)N2CC[C@H](NC(=O)c3cc(C4CC4)on3)C[C@@H]2C)[C@@H](C)CN1C [compound 712, 5-cyclopropyl-N-((2S,4S)-2-methyl-1-(((2S,5R)-2,4,5-trimethylpiperazin-1-yl)sulfonyl)piperidin-4-yl)isoxazole-3-carboxamide]	1.1	0.275
CCC1CN(S(=O)(=O)N2[C@@H]3CC[C@H]2C[C@@H](NC(=O)c2cc(C4CC4)on2)C3)CCN1C (stereo partly drawn) [compound 713, 5-cyclopropyl-N-((1R,3r,5S)-8-((3-ethyl-4-methylpiperazin-1-yl)sulfonyl)-8-azabicyclo[3.2.1]octan-3-yl)isoxazole-3-carboxamide]	1.18	0.293
CN(C1CCNCC1)S(=O)(=O)N1CC[C@@H](NC(=O)c2cc(C3CC3)on2)C[C@@H]1Cc1ccccc1 [compound 714, N-((2S,4R)-2-benzyl-1-(N-methyl-N-(piperidin-4-yl)sulfamoyl)piperidin-4-yl)-5-cyclopropylisoxazole-3-carboxamide]	3.15	0.295
CN(C1CCNCC1)S(=O)(=O)N1CC[C@H](NC(=O)c2cc(C3CC3)on2)C[C@H]1Cc1ccccc1 [compound 715, N-((2R,4S)-2-benzyl-1-(N-methyl-N-(piperidin-4-yl)sulfamoyl)piperidin-4-yl)-5-cyclopropylisoxazole-3-carboxamide]	3.04	0.297
C[C@@H]1C[C@H](NC(=O)c2cc(C3CC3)on2)CCN1S(=O)(=O)CCC(N)Cc1ccccc1 (stereo partly drawn) [compound 716, N-((2R,4R)-1-((3-amino-4-phenylbutyl)sulfonyl)-2-methylpiperidin-4-yl)-5-cyclopropylisoxazole-3-carboxamide]	3.53	0.303
O=C(N[C@H]1CCN(S(=O)(=O)C2CCNC2)[C@@H](Cc2ccccc2)C1)c1cc(C2CC2)on1 (stereo partly drawn) [compound 717, N-((2S,4S)-2-benzyl-1-(pyrrolidin-3-ylsulfonyl)piperidin-4-yl)-5-cyclopropylisoxazole-3-carboxamide]	2.02	0.306
CN1CCC(N(C)S(=O)(=O)N2[C@@H]3CCC[C@H]2C[C@H](NC(=O)c2cc(C4CC4)on2)C3)CC1 [compound 718, 5-cyclopropyl-N-((1R,3s,5S)-9-(N-methyl-N-(1-methylpiperidin-4-yl)sulfamoyl)-9-azabicyclo[3.3.1]nonan-3-yl)isoxazole-3-carboxamide]	1.62	0.309
C[C@H]1CN(S(=O)(=O)N(C)C2CCN(Cc3ccccc3)CC2)CC[C@H]1NC(=O)c1cc(C2CC2)on1 [compound 719, N-((3S,4R)-1-(N-(1-benzylpiperidin-4-yl)-N-methylsulfamoyl)-3-methylpiperidin-4-yl)-5-cyclopropylisoxazole-3-carboxamide]	1.21	0.32
COCCN1CCC(CS(=O)(=O)N2CC[C@H](NC(=O)c3cc(C4CC4)on3)C[C@@H]2Cc2ccccc2)CC1 [compound 720, N-((2S,4S)-2-benzyl-1-(((1-(2-methoxyethyl)piperidin-4-yl)methyl)sulfonyl)piperidin-4-yl)-5-cyclopropylisoxazole-3-carboxamide]	2.43	0.322
